Here are results for 34 compounds from patent US9018383B2, “Acylamino-substituted cyclic carboxylic acid derivatives and their use as pharmaceuticals” (Sanofi, priority 2009, dated 2015).

pIC50: −log10 of the molar value. A value given as a limit tells only on which side of the number the result lay.

Chain of human Edg-2 receptor (Q92633 whole entry): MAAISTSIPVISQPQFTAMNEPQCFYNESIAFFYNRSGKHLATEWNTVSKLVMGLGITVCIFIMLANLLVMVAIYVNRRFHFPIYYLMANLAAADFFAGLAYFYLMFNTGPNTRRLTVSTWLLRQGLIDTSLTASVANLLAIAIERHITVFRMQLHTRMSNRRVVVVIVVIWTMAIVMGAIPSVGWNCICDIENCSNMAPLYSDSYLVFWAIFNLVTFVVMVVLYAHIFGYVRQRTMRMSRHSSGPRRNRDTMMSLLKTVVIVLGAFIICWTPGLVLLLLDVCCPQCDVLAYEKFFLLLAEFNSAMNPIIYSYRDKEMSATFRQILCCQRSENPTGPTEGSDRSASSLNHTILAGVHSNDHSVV

The target of the assay is human Edg-2 receptor (Homo sapiens, UniProt Q92633). The assay can be described thus: Determination of Edg-2 receptor inhibition by FLIPR measurements (LPA-mediated calcium liberation). The note with it: CHO cells overexpressing human Edg-2 receptor, LPA 100 nM, fluo-4 calcium fluorescence; read-out: Inhibitory concentrations IC50 for inhibition of the Edg-2 receptor. The format is cell-based. On the procedure:
A) Determination of Edg-2 Receptor Inhibition by Fluorescence Imaging Plate Reader (FLIPR) Measurements
The inhibition of the Edg-2 receptor (LPA1 receptor) by the compounds of the invention was quantified by the inhibitory effect on the LPA-mediated calcium liberation in a cell-based calcium fluorescence assay by use of Chinese hamster ovarian (CHO) cells in which the human Edg-2 receptor was stably overexpressed (Flp-In system, Invitrogen). […] Changes in intracellular calcium were determined by fluorescence measurement with the calcium-sensitive dye fluo-4 (Invitrogen) in a fluorescence imaging plate reader (FLIPR, […]).
CHO cells stably overexpressing the human Edg-2 receptor were seeded (40.000 per well) in black clear-bottomed poly-D-lysine-coated 96 well plates (Becton Dickinson, Biocoat cellware) approximately 18-24 h prior to the experiments. Cells were grown in an incubator at 37° C., 5% carbon dioxide and 95% humidity in cell culture media based on F-12 glutamax media (Gibco, #31765) supplemented with 1% (vol/vol) penicilline/streptomycine (PAN, #P06-07100), 10% (vol/vol) fetal calf serum (FCS, PAA, #A15-151) and hygromycin B (Invitrogen, #10687-010) 300 mg/l (final concentrations).
Prior to the FLIPR experiment, cells were loaded with fluo-4 acetoxymethyl ester (fluo-4 AM, Invitrogen, #F14202) for 60 min in an incubator at 37° C., 5% carbon dioxide and 95% humidity in dye-loading buffer consisting of Hanks' Balanced Salt Solution (HBSS, Invitrogen, #14065049) supplemented with fluo-4 AM at 2 μM (all data given for final concentration), Pluronic® F-127 0.05% (vol/vol) (Invitrogen, #P-3000 MP), HEPES 20 mM (Gibco, #15630), probenecid 2.5 mM (Sigma, #P-8761) and bovine serum albumin 0.05% (BSA, Sigma, #A-6003), adjusted to pH 7.5 with sodium hydroxide. During cell loading, fluo-4 AM is cleaved by intracellular esterase resulting in trapping of the dye fluo-4 within the cells. Loading was terminated by washing of the cells in a cell washer (Tecan Power washer) three times with the buffer specified afore but without fluo-4 AM and BSA. This latter buffer was also used as the buffer in the subsequent cell fluorescence measurements.
The dye-loaded and washed cells were pre-incubated for approximately 5 min with various concentrations of the test compound added as a solution in DMSO (0.3% vol/vol maximum final concentration of DMSO), or with DMSO in the respective concentration only (positive control). Subsequent addition of LPA (18:1, 1-oleoyl-sn-glycerol 3-phosphate; 100 nM final concentration) leads to liberation of intracellular calcium from internal stores resulting in a large transient increase of the fluo-4 fluorescence signal which was monitored over approximately 3 min. The percent inhibition caused by the test compound was determined from the maximum fluorescence response after LPA addition to cells pre-incubated with the compound as compared to the maximum fluorescence response after LPA addition to cells pre-incubated with DMSO only. All fluorescence values were corrected for the baseline fluorescence values obtained with cells which were pre-incubated with DMSO only and were not treated with LPA (baseline control). All measurements were performed in triplicate. From the percent inhibitions the inhibitory concentration IC50 was determined.
For `COc1ncc(C(=O)N[C@]2(C(=O)O)CC[C@@H](C)CC2)cc1OCCc1cccc(CCO)c1` [Example 90, trans-1-[(5-{2-[3-(2-Hydroxy-ethyl)-phenyl]-ethoxy}-6-methoxy-pyridine-3-carbonyl)-amino]-4-methyl-cyclohexanecarboxylic acid], the pIC50 is over 7.00.

As to `CC[C@H]1CC[C@](NC(=O)c2ccc(OC)c(OCCc3ccccc3)c2)(C(=O)O)CC1` [Example 206], the pIC50 is over 7.00. For the compound `CC[C@H]1CC[C@](NC(=O)c2cc3c(c(-c4ccc(OC)c(Cl)c4)c2)OC(F)(F)O3)(C(=O)O)CC1` [Example 463, Cis-1-{[7-(3-Chloro-4-methoxy-phenyl)-2,2-difluoro-benzo[1,3]dioxole-5-carbonyl]-amino}-4-ethyl-cyclohexanecarboxylic acid], the pIC50 is over 7.00.

Take `COc1ncc(C(=O)NC2(C(=O)O)CCCCCC2)cc1-c1cccc(OC(F)(F)F)c1` [Example 96]: the pIC50 was over 7.00. Regarding `COc1ccc(C(=O)NC2(C(=O)O)CCCC(C)C2)cc1OCCc1cccc(C)c1` (stereo not shown) [Example 372], the pIC50 was 6.00 to 7.00. Consider `CCc1ncc(C(=O)N[C@]2(C(=O)O)CC[C@H](CC)CC2)cc1OCCc1cccc(Cl)c1` [Example 437, cis-1-({5-[2-(3-Chloro-phenyl)-ethoxy]-6-ethyl-pyridine-3-carbonyl}-amino)-4-ethyl-cyclohexanecarboxylic acid], for which the pIC50 was over 7.00. In the case of `CC[C@H]1CC[C@](NC(=O)c2ccc(OC)c(-c3ccc(OC)c(F)c3)c2)(C(=O)O)CC1` [Example 425, cis-4-Ethyl-1-[(3′-fluoro-6,4′-dimethoxy-biphenyl-3-carbonyl)-amino]-cyclohexanecarboxylic acid], the pIC50 is 6.00 to 7.00.

With `COc1ccc(C(=O)NC2(C(=O)O)CCCCCC2)cc1OCCc1cccc(Cl)c1F` [Example 21], the pIC50 is 6.00 to 7.00. Regarding `COc1ccc(C(=O)NC2(C(=O)O)CCCCCC2)cc1OCCc1c(F)cccc1Cl` [Example 16], the pIC50 was over 7.00.

As for `COc1c(F)cc(C(=O)N[C@]2(C(=O)O)CC[C@@H](C)CC2)cc1OCCc1cccc(CCO)c1` [Example 392, trans-1-(3-Fluoro-5-{2-[3-(2-hydroxy-ethyl)-phenyl]-ethoxy}-4-methoxy-benzoylamino)-4-methyl-cyclohexanecarboxylic acid], the pIC50 is over 7.00.

For the compound `COc1ccc(C(=O)NC2(C(=O)O)CCCCC2C)cc1OCCc1cccc(C)c1` (stereo not shown) [Example 48], the pIC50 was 4.52 to 6.00. On to `CCc1sc(C(=O)N[C@]2(C(=O)O)CC[C@@H](CC)CC2)cc1OCCc1cccc(Cl)c1` [Example 440, trans-1-({4-[2-(3-Chloro-phenyl)-ethoxy]-5-ethyl-thiophene-2-carbonyl}-amino)-4-ethyl-cyclohexanecarboxylic acid], for which the pIC50 is 6.00 to 7.00. `COCCOc1ccc(C(=O)NC2(C(=O)O)CCCCCC2)cc1OCCc1cccc(Cl)c1` [Example 115, 1-[3-[2-(3-Chloro-phenyl)-ethoxy]-4-(2-methoxy-ethoxy)-benzoylamino]-cycloheptanecarboxylic acid]: the pIC50 is 4.52 to 6.00.

Consider `COc1ccc(C(=O)NC2(C(=O)O)CCCCCC2)cc1OCCc1ccc(Cl)cc1Cl` [Example 15], for which the pIC50 is 4.52 to 6.00.

With `COc1ncc(C(=O)NC2(C(=O)O)CCCCCC2)cc1OCCc1cccc(Cl)c1` [Example 401, 1-({5-[2-(3-Chloro-phenyl)-ethoxy]-6-methoxy-pyridine-3-carbonyl}-amino)-cycloheptanecarboxylic acid], the pIC50 is over 7.00. For `COc1ccc(C(=O)NC2(C(=O)O)CCCC2)cc1OCCc1cccc(C)c1` [Example 35], the pIC50 is 4.52 to 6.00.

With `COc1ccc(C(=O)NC2(C(=O)O)CCCCCC2)cc1OCCc1ccsc1` [Example 11, 1-{3-[2-(thiophen-3-yl)-ethoxy]-4-methoxy-benzoylamino]-cycloheptanecarboxylic acid], the pIC50 was 6.00 to 7.00. As to `COc1ccc(C(=O)N[C@]2(C(=O)O)CC[C@H](C)CC2)cc1OCCc1ccccc1` [Example 406, cis-1-(4-Methoxy-3-phenethyloxy-benzoylamino)-4-methyl-cyclohexanecarboxylic acid], the pIC50 is 6.00 to 7.00. For the compound `COc1ncc(C(=O)N[C@]2(C(=O)O)CC[C@H](C(F)(F)F)CC2)cc1-c1cccc(C(F)(F)F)c1` [Example 376], the pIC50 is over 7.00.

Turning to `CC[C@H]1CC[C@](NC(=O)c2cnc(OC)c(OCCc3ccccc3)c2)(C(=O)O)CC1` [Example 358, cis-4-Ethyl-1-[(6-methoxy-5-phenethyloxy-pyridine-3-carbonyl)-amino]-cyclohexanecarboxylic acid], the pIC50 was over 7.00. With `CC[C@H]1CC[C@@](NC(=O)c2ccc(C=O)c(-c3cccc(C(F)(F)F)c3)c2)(C(=O)O)CC1` [Example 429, trans-4-Ethyl-1-[(6-formyl-3′-trifluoromethyl-biphenyl-3-carbonyl)-amino]-cyclohexanecarboxylic acid], the pIC50 was 6.00 to 7.00.

Take `CC[C@H]1CC[C@@](NC(=O)c2cnc(OC)c(OCCc3cccc(CCO)c3)c2)(C(=O)O)CC1` [Example 424, trans-4-Ethyl-1-[(5-{2-[3-(2-hydroxy-ethyl)-phenyl]-ethoxy}-6-methoxy-pyridine-3-carbonyl)-amino]-cyclohexanecarboxylic acid]: the pIC50 was over 7.00. Then `CC[C@H]1CC[C@](NC(=O)c2cc(F)c(OC)c(-c3ccc(OC)c(Cl)c3)c2)(C(=O)O)CC1` [Example 447, Cis-1-[(3′-chloro-5-fluoro-6,4′-dimethoxy-biphenyl-3-carbonyl)-amino]-4-ethyl-cyclohexanecarboxylic acid], with over 7.00. With `Cc1cccc(CCOc2ccc(C(=O)N[C@]3(C(=O)O)CC[C@@H](C)CC3)cc2C(O)C(F)(F)F)c1` (stereo partly drawn) [Example 442, (R,S)-trans-4-Methyl-1-[4-(2-m-tolyl-ethoxy)-3-(2,2,2-trifluoro-1-hydroxy-ethyl)-benzoylamino]-cyclohexanecarboxylic acid], the pIC50 is over 7.00. For the compound `CC[C@H]1CC[C@](NC(=O)c2cnc(OC)c(OCCc3cccc(OC(F)(F)F)c3)c2)(C(=O)O)CC1` [Example 399, cis-4-Ethyl-1-({6-methoxy-5-[2-(3-trifluoromethoxy-phenyl)-ethoxy]-pyridine-3-carbonyl}-amino)-cyclohexanecarboxylic acid], the pIC50 was over 7.00. On to `C=C1CCC(NC(=O)c2ccc(OC)c(OCCc3cccc(C)c3)c2)(C(=O)O)CC1` [Example 56, 1-[4-Methoxy-3-(2-m-tolyl-ethoxy)-benzoylamino]-4-methylene-cyclohexanecarboxylic acid], for which the pIC50 was over 7.00. For `CC[C@H]1CC[C@](NC(=O)c2ccc(OC)c(OCCc3cccc(Cl)c3)c2)(C(=O)O)CC1` [Example 208], the pIC50 is over 7.00. Then `COc1ccc(C(=O)NC2(C(=O)O)CCCCCC2)cc1OCCc1cc(Cl)ccc1Cl` [Example 17], with over 7.00; and `COc1cccc(CCOc2cc(C(=O)NC3(C(=O)O)CCCCCC3)ccc2OC)c1` [Example 7], with over 7.00; and `COc1ccc(C(=O)N[C@]2(C(=O)O)CC[C@@H](C)CC2)cc1OCCc1cccc(C2COC2)c1` [Example 128, trans-1-{4-Methoxy-3-[2-(3-oxetan-3-yl-phenyl)-ethoxy]-benzoylamino}-4-methyl-cyclohexanecarboxylic acid], with 6.00 to 7.00. On to `COc1ncc(C(=O)NC2(C(=O)O)CCCCCC2)cc1-c1cc(Cl)cc(C(F)(F)F)c1` [Example 99], for which the pIC50 is over 7.00. `COc1ncc(C(=O)NC2(C(=O)O)CCCCCC2)cc1-c1cccc(NS(=O)(=O)N(C)C)c1` [Example 93]: the pIC50 was 4.52 to 6.00. In the case of `COc1ccc(C(=O)NC2(C(=O)O)CCC=CCC2)cc1OCCc1cccc(C)c1` [Example 74, 1-[4-Methoxy-3-(2-m-tolyl-ethoxy)-benzoylamino]-cyclohept-4-enecarboxylic acid], the pIC50 was over 7.00. For `COc1ccc(-c2cc(C(=O)N[C@]3(C(=O)O)CC[C@H](C)CC3)cnc2OC)cc1Cl` [Example 319], the pIC50 was over 7.00.
